Source: ChEMBL document CHEMBL5608173, “Discovery of novel natural-product-derived mutant isocitrate dehydrogenases 1 inhibitors: Structure-based virtual screening, biological evaluation and structure-activity relationship study” (Eur J Med Chem, 2024)

Key:
HT-1080 [1] = assay: Induction of apoptosis in human HT-1080 cells assessed as late apoptotic cells at 6 uM incubated for 24 hrs by Annexin V-FITC/PI staining based flow cytometric analysis (reference value: 0.60 %); assay type: functional
HT-1080 [2] = assay: Induction of apoptosis in human HT-1080 cells assessed as viable cells at 6 uM incubated for 24 hrs by Annexin V-FITC/PI staining based flow cytometric analysis (reference value: 96.65 %); assay type: functional; conditions: read-out: Activity
HT-1080 [3] = assay: Cell cycle arrest in human HT-1080 cells assessed as S phase cells at 4 uM incubated for 24 hrs by PI staining based flow cytometric analysis (reference value: 18.3 %); assay type: functional
HT-1080 [4] = assay: Induction of apoptosis in human HT-1080 cells assessed as necrotic cells at 6 uM incubated for 24 hrs by Annexin V-FITC/PI staining based flow cytometric analysis (reference value: 0.38 %); assay type: functional
HT-1080 [5] = assay: Cell cycle arrest in human HT-1080 cells assessed as G1 phase cells at 8 uM incubated for 24 hrs by PI staining based flow cytometric analysis (reference value: 58.1 %); assay type: functional
HT-1080 [6] = assay: Induction of apoptosis in human HT-1080 cells assessed as early apoptotic cells at 8 uM incubated for 48 hrs by Annexin V-FITC/PI staining based flow cytometric analysis (reference value: 2.33 %); assay type: functional
U-87 MG [7] = assay: Antiproliferative activity against human U-87 MG cells assessed as reduction in cell viability incubated for 72 hrs by MTT assay; assay type: functional, U-87MG ATCC
[8] = Toxicity in Sprague-Dawley rat assessed as observable clinical signs at 0.5 mg/kg, iv measured after 24 hrs; assay type: organism-based; conditions: in vivo
HT-1080 [9] = assay: Induction of apoptosis in human HT-1080 cells assessed as viable cells at 6 uM incubated for 48 hrs by Annexin V-FITC/PI staining based flow cytometric analysis (reference value: 96.65 %); assay type: functional; conditions: read-out: Activity
[10] = Half-life in Sprague-Dawley rat at 5 mg/kg, po measured after 24 hrs by LC-MS/MS analysis; assay type: ADME, organism-based; conditions: in vivo
HT-1080 [11] = assay: Induction of apoptosis in human HT-1080 cells assessed as necrotic cells at 8 uM incubated for 48 hrs by Annexin V-FITC/PI staining based flow cytometric analysis (reference value: 0.45 %); assay type: functional
HT-1080 [12] = assay: Cell cycle arrest in human HT-1080 cells assessed as S phase cells at 10 uM incubated for 24 hrs by PI staining based flow cytometric analysis (reference value: 18.3 %); assay type: functional
[13] = tested on: Isocitrate dehydrogenase [NADP] cytoplasmic (Homo sapiens), O75874 [R132C]; assay: Inhibition of recombinant human IDH1 R132C mutant extracted from Escherichia coli BL21 (DE3) cells using alpha-ketoglutarate as substrate at 0.2 uM incubated for 60 mins in presence of NADPH by absorbance based assay relative to control
Sequence of Isocitrate dehydrogenase [NADP] cytoplasmic (Homo sapiens), O75874 [R132C] (O75874 whole entry R132C): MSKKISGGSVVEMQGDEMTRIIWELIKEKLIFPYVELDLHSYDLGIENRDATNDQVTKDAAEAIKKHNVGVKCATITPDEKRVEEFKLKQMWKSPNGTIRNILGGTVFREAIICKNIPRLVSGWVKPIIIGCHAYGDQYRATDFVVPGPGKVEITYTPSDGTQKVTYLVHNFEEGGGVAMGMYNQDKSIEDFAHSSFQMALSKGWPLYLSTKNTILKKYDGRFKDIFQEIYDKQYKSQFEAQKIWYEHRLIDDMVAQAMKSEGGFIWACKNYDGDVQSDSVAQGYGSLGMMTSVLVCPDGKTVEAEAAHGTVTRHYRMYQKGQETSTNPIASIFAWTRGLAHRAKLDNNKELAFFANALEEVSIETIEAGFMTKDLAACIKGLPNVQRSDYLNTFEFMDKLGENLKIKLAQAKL

HT-1080 [14] = assay: Induction of apoptosis in human HT-1080 cells assessed as necrotic cells at 4 uM incubated for 48 hrs by Annexin V-FITC/PI staining based flow cytometric analysis (reference value: 0.45 %); assay type: functional
HT-1080 [15] = assay: Induction of apoptosis in human HT-1080 cells assessed as viable cells at 4 uM incubated for 48 hrs by Annexin V-FITC/PI staining based flow cytometric analysis (reference value: 96.07 %); assay type: functional; conditions: read-out: Activity
[16] = tested on: Isocitrate dehydrogenase [NADP] cytoplasmic (Homo sapiens), O75874 [R132C]; assay: Inhibition of recombinant human IDH1 R132C mutant extracted from Escherichia coli BL21 (DE3) cells using alpha-ketoglutarate as substrate at 2 uM incubated for 60 mins in presence of NADPH by absorbance based assay relative to control
[17] = Toxicity in female nude mouse xenografted with human HT-1080 cells assessed as body weight loss at 40 mg/kg, ip administered every 2 days for 8 days; assay type: organism-based; conditions: in vivo, 192 h, time 8 day
HT-1080 [18] = assay: Cell cycle arrest in human HT-1080 cells assessed as G2 phase cells at 10 uM incubated for 24 hrs by PI staining based flow cytometric analysis (reference value: 23.6 %); assay type: functional
L02 = assay: Cytotoxicity against human L02 cells assessed as reduction in cell viability at 0.5 to 2 uM; assay type: toxicity, cell-based; conditions: l02, 2 µM, dose 0.5-2 µM
HT-1080 [19] = assay: Induction of apoptosis in human HT-1080 cells assessed as late apoptotic cells at 4 uM incubated for 48 hrs by Annexin V-FITC/PI staining based flow cytometric analysis (reference value: 1.15 %); assay type: functional
U-87 MG [20] = assay: Antiproliferative activity against human U-87 MG cells harboring IDH1 R132H mutant assessed as reduction in cell viability incubated for 72 hrs by MTT assay; assay type: functional, U-87MG ATCC
[21] = In vivo inhibition of IDH1 mutant in female nude mouse xenografted with human HT-1080 cells assessed as reduction in 2-HG levels in tumor at 20 mg/kg, ip administered twice at 1 hrs interval by resazurin fluorescence dye based Sigma MAK320-1 assay kit analysis relative to control; assay type: functional
HT-1080 [22] = assay: Induction of apoptosis in human HT-1080 cells assessed as late apoptotic cells at 6 uM incubated for 12 hrs by Annexin V-FITC/PI staining based flow cytometric analysis (reference value: 0.60 %); assay type: functional
[23] = tested on: Isocitrate dehydrogenase [NADP] cytoplasmic (Homo sapiens), O75874 [R132H]; assay: Inhibition of recombinant human IDH1 R132H mutant extracted from Escherichia coli BL21 (DE3) cells using alpha-ketoglutarate as substrate at 0.2 uM incubated for 60 mins in presence of NADPH by absorbance based assay relative to control
Sequence of Isocitrate dehydrogenase [NADP] cytoplasmic (Homo sapiens), O75874 [R132H] (O75874 whole entry R132H): as the sequence (O75874 whole entry R132C) above, with C132H counted along it

[24] = Tmax in Sprague-Dawley rat at 5 mg/kg, po measured after 24 hrs by LC-MS/MS analysis; assay type: ADME, organism-based; conditions: in vivo
HT-1080 [25] = assay: Induction of apoptosis in human HT-1080 cells assessed as necrotic cells at 6 uM incubated for 12 hrs by Annexin V-FITC/PI staining based flow cytometric analysis (reference value: 0.38 %); assay type: functional
HT-1080 [26] = assay: Induction of apoptosis in human HT-1080 cells assessed as early apoptotic cells at 2 uM incubated for 48 hrs by Annexin V-FITC/PI staining based flow cytometric analysis (reference value: 2.33 %); assay type: functional
HT-1080 [27] = assay: Induction of apoptosis in human HT-1080 cells assessed as viable cells at 8 uM incubated for 48 hrs by Annexin V-FITC/PI staining based flow cytometric analysis (reference value: 96.07 %); assay type: functional; conditions: read-out: Activity
[28] = Oral bioavailability in Sprague-Dawley rat at 5 mg/kg measured after 24 hrs by LC-MS/MS analysis; assay type: ADME, organism-based; conditions: in vivo
[29] = target: Isocitrate dehydrogenase [NADP] cytoplasmic (Homo sapiens, UniProt O75874); assay: Inhibition of recombinant human wildtype IDH1 extracted from Escherichia coli BL21 (DE3) cells using alpha-ketoglutarate as substrate incubated for 60 mins in presence of NADPH by absorbance based assay
Sequence of Isocitrate dehydrogenase [NADP] cytoplasmic (O75874 whole entry): as the sequence (O75874 whole entry R132C) above, with C132R counted along it

HT-1080 [30] = assay: Induction of apoptosis in human HT-1080 cells assessed as late apoptotic cells at 6 uM incubated for 48 hrs by Annexin V-FITC/PI staining based flow cytometric analysis (reference value: 0.60 %); assay type: functional
[31] = AUC (0 to t) in Sprague-Dawley rat at 5 mg/kg, po measured after 24 hrs by LC-MS/MS analysis; assay type: ADME, organism-based; conditions: in vivo
HT-1080 [32] = assay: Induction of apoptosis in human HT-1080 cells assessed as late apoptotic cells at 2 uM incubated for 48 hrs by Annexin V-FITC/PI staining based flow cytometric analysis (reference value: 1.15 %); assay type: functional

half-life [10]: 2.13 h
inhibition [13]: 65.9%
inhibition [16]: > 100%
inhibition [23]: 75.4%
Tmax [24]: 0.19 h
bioavailability [28]: 16.8%
IC50 [29]: > 20 µM
AUC(0-t) at 24 h [31]: 370 ng·h/mL
Compound: COc1cc(O)c(-c2cc(-c3ccc(O)cc3)nc(N3CCNCC3)n2)cc1CC=C(C)C
Activity (HT-1080 [1]): 5.26%
viability at 6 µM (HT-1080 [2]): 87.3%
Activity (HT-1080 [3]): 22.9%
Activity (HT-1080 [4]): 4.16%
Activity (HT-1080 [5]): 51.8%
Activity (HT-1080 [6]): 7.82%
GC50 (U-87 MG [7]): 6.91 µM
Activity [8]: Non-Toxic
viability at 6 µM (HT-1080 [9]): 80.8%
Activity (HT-1080 [11]): 4.66%
Activity (HT-1080 [12]): 51.6%
Activity (HT-1080 [14]): 2.13%
viability at 4 µM (HT-1080 [15]): 83.7%
Activity [17]: Non-Toxic
Activity (HT-1080 [18]): 3%
Activity (L02): Non-Toxic
Activity (HT-1080 [19]): 9.67%
GC50 (U-87 MG [20]): 3.48 µM
inhibition in vivo at 20 mg/kg [21]: 75%
Activity (HT-1080 [22]): 2.92%
Activity (HT-1080 [25]): 4.99%
Activity (HT-1080 [26]): 5.1%
viability at 8 µM (HT-1080 [27]): 69.6%
Activity (HT-1080 [30]): 6.57%
Activity (HT-1080 [32]): 4.96%
